Laboratory results as given in patent US8686150B2 (Sanofi, priority 2011, dated 2014).

Biological target: T1, human full-length recombinant PKC βII (Homo sapiens, UniProt P05771)
T1 construct: Active human full-length recombinant PKC βII; purchased Invitrogen GmbH, Darmstadt, Germany
Experiment: Determination of PKC βII inhibition (Caliper mobility-shift kinase assay, Fluorescein-RFARKGSLRQKNV peptide substrate)
Assay type: biochemical
Conditions: example compounds at a final concentration of 1.14 μM (±0.15 μM)
Summary of the method: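 Compounds were tested at 1.14 μM final. Enzyme was activated by PS, DAG and CaCl2 in Hepes pH 7.4 with MgCl2, with substrate 3 μM and ATP 120 μM as pre-mix concentrations. After 60 min at 32 °C and an EDTA stop, Caliper separation gave fractional turnover, which was normalised to no-compound and no-enzyme controls.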

T1 sequence (P05771 1-673 isoform P05771-2): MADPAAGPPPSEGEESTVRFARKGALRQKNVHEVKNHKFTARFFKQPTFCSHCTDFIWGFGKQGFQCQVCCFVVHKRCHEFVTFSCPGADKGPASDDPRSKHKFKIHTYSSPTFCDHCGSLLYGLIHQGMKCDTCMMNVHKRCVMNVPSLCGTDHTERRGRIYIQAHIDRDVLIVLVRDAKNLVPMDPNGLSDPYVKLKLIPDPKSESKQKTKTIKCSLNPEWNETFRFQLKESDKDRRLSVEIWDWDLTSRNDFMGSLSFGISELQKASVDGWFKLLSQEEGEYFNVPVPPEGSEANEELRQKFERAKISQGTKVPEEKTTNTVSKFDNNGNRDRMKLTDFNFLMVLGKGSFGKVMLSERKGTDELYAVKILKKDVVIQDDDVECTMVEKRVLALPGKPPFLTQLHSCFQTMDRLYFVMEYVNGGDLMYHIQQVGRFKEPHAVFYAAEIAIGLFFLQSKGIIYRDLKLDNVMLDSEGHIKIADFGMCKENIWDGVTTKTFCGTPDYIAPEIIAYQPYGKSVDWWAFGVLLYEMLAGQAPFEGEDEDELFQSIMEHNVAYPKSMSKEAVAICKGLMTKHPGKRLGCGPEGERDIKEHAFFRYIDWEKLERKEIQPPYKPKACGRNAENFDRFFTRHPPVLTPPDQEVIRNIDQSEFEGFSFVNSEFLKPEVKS

SMILES | inhibition at 1.14 µM [%]
Cc1n[nH]c2nc(-c3ccc(O)cc3)cc(C(=O)N3CCNCC3c3cccc(C(F)(F)F)c3)c12 (stereo not shown) [Example 99, [6-(4-Hydroxy-phenyl)-3-methyl-1H-pyrazolo[3,4-b]pyridin-4-yl]-[2-(3-trifluoromethyl-phenyl)-piperazin-1-yl]-methanone] | 97
Cc1n[nH]c2nc(-c3ccc(O)cc3)cc(C(=O)N[C@H]3C[C@H](N)C3)c12 [Example 252, 6-(4-Hydroxy-phenyl)-3-methyl-1H-pyrazolo[3,4-b]pyridine-4-carboxylic acid (trans-3-amino-cyclobutyl)-amide] | 72
Cc1n[nH]c2nc(-c3ccc(O)cc3)cc(C(=O)N3CC4(CCNCC4)c4ccccc43)c12 [Example 237] | 59
Cc1n[nH]c2nc(-c3ccc(O)c(F)c3)cc(C(=O)N3CCC4CNCC43)c12 (stereo not shown) [Example 308, [6-(3-Fluoro-4-hydroxy-phenyl)-3-methyl-1H-pyrazolo[3,4-b]pyridin-4-yl]-(hexahydro-pyrrolo[3,4-b]pyrrol-1-yl)-methanone] | 60
CCc1n[nH]c2nc(-c3ccc(O)cc3)cc(C(=O)N(C)C3CCN(C)CC3)c12 [Example 174, 3-Ethyl-6-(4-hydroxy-phenyl)-1H-pyrazolo[3,4-b]pyridine-4-carboxylic acid methyl-(1-methyl-piperidin-4-yl)-amide] | 34
Cc1n[nH]c2nc(-c3ccc(O)cc3)cc(C(=O)N3CCN[C@@H](C)C3)c12 [Example 190, [6-(4-Hydroxy-phenyl)-3-methyl-1H-pyrazolo[3,4-b]pyridin-4-yl]-((S)-3-methyl-piperazin-1-yl)-methanone] | 101
Cc1ccc(C(CN)NC(=O)c2cc(-c3ccc(O)cc3)nc3[nH]nc(C)c23)cc1 (stereo not shown) [Example 52, 6-(4-Hydroxy-phenyl)-3-methyl-1H-pyrazolo[3,4-b]pyridine-4-carboxylic acid (2-amino-1-p-tolyl-ethyl)-amide] | 86
Cc1cc(O)ccc1-c1cc(C(=O)N2CCNCC2(C)C)c2c(C)n[nH]c2n1 [Example 142, (2,2-Dimethyl-piperazin-1-yl)-[6-(4-hydroxy-2-methyl-phenyl)-3-methyl-1H-pyrazolo[3,4-b]pyridin-4-yl]-methanone] | 98
Cc1n[nH]c2nc(-c3ccc(O)cc3)cc(C(=O)NCC(C)(C)CN)c12 [Example 270, 6-(4-Hydroxy-phenyl)-3-methyl-1H-pyrazolo[3,4-b]pyridine-4-carboxylic acid (3-amino-2,2-dimethyl-propyl)-amide] | 87
Cc1n[nH]c2nc(-c3ccc(O)cc3)cc(C(=O)N3CCN(C(=O)N4CCCC4)CC3)c12 [Example 379, {4-[6-(4-Hydroxy-phenyl)-3-methyl-1H-pyrazolo[3,4-b]pyridine-4-carbonyl]-piperazin-1-yl}-pyrrolidin-1-yl-methanone] | 86
